# ChEMBL document CHEMBL1201862, “PubChem BioAssay data set” (2004)
# The source made the active and inactive calls.
# Legend:
# [1] = target: Potassium voltage-gated channel subfamily KQT member 2 (Rattus norvegicus, UniProt O88943); test: retigabine-insensitive KCNQ2 potentiators, concentration-response, dose response, cell-based, retigabine-insensitive compounds (AID 2654); assay type: functional
# [2] = target: T1, Sentrin-specific protease 7 (Homo sapiens, UniProt Q9BQF6); assay type: functional;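 also: Luminescence-based dose-response confirmation of ultra-high-throughput screening hits, measuring inhibition of SENP7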
# T1 sequence (Q9BQF6 whole entry): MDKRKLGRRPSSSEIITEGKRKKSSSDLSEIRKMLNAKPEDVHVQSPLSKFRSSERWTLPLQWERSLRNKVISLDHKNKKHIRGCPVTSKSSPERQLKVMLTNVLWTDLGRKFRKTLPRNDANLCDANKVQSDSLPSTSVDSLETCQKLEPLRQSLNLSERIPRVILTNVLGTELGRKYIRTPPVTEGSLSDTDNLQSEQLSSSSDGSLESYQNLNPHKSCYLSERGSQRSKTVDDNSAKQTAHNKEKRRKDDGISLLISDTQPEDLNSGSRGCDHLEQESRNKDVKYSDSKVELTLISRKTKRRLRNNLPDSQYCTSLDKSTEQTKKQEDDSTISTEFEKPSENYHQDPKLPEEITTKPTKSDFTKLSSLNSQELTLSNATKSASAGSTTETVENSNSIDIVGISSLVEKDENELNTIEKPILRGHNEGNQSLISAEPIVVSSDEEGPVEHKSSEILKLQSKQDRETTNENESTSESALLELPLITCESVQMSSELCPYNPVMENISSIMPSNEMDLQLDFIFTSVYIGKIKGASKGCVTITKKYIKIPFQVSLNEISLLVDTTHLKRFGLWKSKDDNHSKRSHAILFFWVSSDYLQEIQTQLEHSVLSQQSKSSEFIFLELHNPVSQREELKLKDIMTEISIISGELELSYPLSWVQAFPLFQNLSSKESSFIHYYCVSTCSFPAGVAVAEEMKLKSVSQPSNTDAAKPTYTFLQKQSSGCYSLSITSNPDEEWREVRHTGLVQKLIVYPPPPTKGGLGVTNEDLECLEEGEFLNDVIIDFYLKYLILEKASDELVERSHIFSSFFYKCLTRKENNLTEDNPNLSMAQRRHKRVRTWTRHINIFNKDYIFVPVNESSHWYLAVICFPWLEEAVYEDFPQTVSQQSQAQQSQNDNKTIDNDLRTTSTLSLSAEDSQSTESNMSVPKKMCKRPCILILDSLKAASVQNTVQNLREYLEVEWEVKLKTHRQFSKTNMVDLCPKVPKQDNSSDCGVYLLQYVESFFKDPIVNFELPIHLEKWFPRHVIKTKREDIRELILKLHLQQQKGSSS
# [3] = target: T2, Sentrin-specific protease 6 (Homo sapiens, UniProt Q9GZR1); assay type: functional;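 also: Luminescence-based dose-response confirmatory assay of SENP6 inhibition, following up an ultra-high-throughput screen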
# T2 sequence (Q9GZR1 whole entry): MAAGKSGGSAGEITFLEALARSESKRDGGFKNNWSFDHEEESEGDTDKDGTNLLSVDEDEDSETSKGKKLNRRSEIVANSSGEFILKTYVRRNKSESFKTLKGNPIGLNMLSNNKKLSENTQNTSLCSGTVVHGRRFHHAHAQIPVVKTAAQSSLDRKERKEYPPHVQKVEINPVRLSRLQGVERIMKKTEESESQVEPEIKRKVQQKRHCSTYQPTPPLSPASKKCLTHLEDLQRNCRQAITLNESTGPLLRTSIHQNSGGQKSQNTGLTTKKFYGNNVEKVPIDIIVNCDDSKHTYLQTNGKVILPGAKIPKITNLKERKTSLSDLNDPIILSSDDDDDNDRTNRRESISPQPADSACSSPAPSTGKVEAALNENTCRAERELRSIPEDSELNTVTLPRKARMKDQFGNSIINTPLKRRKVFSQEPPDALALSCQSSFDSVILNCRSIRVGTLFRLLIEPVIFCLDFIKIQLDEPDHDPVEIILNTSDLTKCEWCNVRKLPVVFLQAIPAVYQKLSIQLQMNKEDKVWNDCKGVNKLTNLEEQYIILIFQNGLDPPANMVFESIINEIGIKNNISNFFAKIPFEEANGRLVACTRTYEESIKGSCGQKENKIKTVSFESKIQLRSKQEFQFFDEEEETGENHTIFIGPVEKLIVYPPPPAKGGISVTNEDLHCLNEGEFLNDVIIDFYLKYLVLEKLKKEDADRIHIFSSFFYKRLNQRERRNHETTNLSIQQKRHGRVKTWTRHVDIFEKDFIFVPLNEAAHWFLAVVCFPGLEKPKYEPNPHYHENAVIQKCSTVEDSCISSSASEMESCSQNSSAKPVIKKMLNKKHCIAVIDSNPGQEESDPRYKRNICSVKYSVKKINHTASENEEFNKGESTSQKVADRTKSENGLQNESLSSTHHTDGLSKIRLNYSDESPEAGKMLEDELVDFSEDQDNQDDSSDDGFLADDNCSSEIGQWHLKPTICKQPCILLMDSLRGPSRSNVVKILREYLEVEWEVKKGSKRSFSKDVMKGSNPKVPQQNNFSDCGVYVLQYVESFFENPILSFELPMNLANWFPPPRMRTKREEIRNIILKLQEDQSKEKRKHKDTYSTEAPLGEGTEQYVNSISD
# [4] = target: T3, Caspase-3 (Homo sapiens, UniProt P42574); assay type: functional;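 also: Dose-response selectivity test against caspase-3 for candidate inhibitors of sentrin-specific proteases (SENPs)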
# T3 sequence (P42574 whole entry): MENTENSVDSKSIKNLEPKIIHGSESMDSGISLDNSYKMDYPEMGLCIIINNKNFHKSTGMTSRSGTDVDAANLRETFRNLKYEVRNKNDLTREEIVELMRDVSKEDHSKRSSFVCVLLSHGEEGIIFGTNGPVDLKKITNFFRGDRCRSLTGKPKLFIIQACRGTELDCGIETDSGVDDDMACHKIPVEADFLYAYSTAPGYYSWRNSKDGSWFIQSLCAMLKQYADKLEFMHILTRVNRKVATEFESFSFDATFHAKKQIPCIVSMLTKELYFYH
# [5] = target: T4, Sentrin-specific protease 8 (Homo sapiens, UniProt Q96LD8); assay type: functional;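 also: luminescence read-out of SENP8 inhibition, dose-response confirmation following an ultra-high-throughput screen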
# T4 sequence (Q96LD8 whole entry): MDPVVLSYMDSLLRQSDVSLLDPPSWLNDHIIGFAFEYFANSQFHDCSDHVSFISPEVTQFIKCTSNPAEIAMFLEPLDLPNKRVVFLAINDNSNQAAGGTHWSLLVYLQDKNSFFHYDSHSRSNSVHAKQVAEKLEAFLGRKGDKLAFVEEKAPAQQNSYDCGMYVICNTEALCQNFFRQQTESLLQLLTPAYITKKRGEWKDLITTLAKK
# [6] = growth suppression of PTEN-null colon cells, dose response, cell-based, HCT116 PTEN knockout (AID 1047); assay type: functional;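 also: HCT116 colon tumor cells with PTEN knocked out; cells exposed to compound for 60 hours before readout; potency for loss of cell viability measured by luminescence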
# [7] = target: Perilipin-1/ABHD5 (Homo sapiens, UniProt O60240+Q8WTS1); test: Luminescence-based biochemical high throughput dose response assay for inhibitors of the interaction of the lipase co-activator protein, abhydrolase domain containing 5 (ABHD5) with perilipin-1 (PLIN1) (2K validation set). [Related pubchem assays (depositor defined):AID493027, AID493057]
# [8] = tested on: Vero; test: cells; assay type: functional; conditions: Chlorocebus sabaeus
# [9] = growth suppression of beta-catenin-knockout colon cells, dose response, cell-based, HCT116, human colon tumor (AID 1045); assay type: functional;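 also: HCT116 colon tumor cells with beta catenin knocked out; cells exposed to compound for 60 hours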
# [10] = target: 1-acylglycerol-3-phosphate O-acyltransferase ABHD5/Perilipin-5 (Homo sapiens, UniProt Q00G26+Q8WTS1); test: Luminescence-based biochemical high throughput dose response assay for inhibitors of the interaction of the lipase co-activator protein, abhydrolase domain containing 5 (ABHD5) with perilipin-5 (MLDP; PLIN5) (2K validation set). [Related pubchem assays (depositor defined):AID493035, AID493241]
# [11] = target: T5, Heat shock factor protein 1 (Mus musculus, UniProt P38532); test: HSF1 potentiators in luciferase reporter cells, confirmation, cell-based, NIH3T3, luminescence, dose retest (AID 435004); assay type: functional;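 also: stress induced by proteasome inhibitor MG132 added 30 min after compound; luciferase reporter driven by HSF1 response element in NIH3T3 cells; actives raise luminescence as potentiators of the MG132 stress response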
# T5 sequence (P38532 whole entry): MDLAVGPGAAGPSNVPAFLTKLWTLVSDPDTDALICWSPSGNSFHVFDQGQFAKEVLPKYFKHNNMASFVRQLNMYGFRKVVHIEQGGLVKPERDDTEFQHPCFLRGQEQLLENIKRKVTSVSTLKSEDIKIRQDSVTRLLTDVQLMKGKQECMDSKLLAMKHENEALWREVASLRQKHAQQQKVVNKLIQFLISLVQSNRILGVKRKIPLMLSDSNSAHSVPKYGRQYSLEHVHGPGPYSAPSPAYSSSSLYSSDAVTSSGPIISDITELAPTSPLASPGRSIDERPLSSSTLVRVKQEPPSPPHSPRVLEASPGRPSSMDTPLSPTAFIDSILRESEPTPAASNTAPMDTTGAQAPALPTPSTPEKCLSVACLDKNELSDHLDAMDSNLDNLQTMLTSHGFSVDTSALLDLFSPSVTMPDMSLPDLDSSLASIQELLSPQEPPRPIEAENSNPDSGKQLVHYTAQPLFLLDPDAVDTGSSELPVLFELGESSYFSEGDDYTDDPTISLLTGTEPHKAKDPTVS
# [12] = target: Importin subunit alpha-1 (Homo sapiens, UniProt P52292); test: YIC FRET probe signal interference, dose response, counter-screen for RanGTP-importin-beta inhibitor project, biochemical, dry powder samples (AID 493094); assay type: functional
# [13] = target: DNA dC->dU-editing enzyme APOBEC-3A (Homo sapiens, UniProt P31941); test: APOBEC3A DNA deaminase inhibitors, dose response, biochemical (AID 504722); assay type: functional
# [14] = target: DNA dC->dU-editing enzyme APOBEC-3G (Homo sapiens, UniProt Q9HC16); test: Dose Response confirmation of small molecule APOBEC3G DNA Deaminase Inhibitors via a fluorescence-based single-stranded DNA deaminase assay. [Related pubchem assays (depositor defined):AID493012, AID493028]; assay type: functional
# [15] = target: Integrin alpha-L (Mus musculus, UniProt P24063); test: modulators of CD8 T cell-vesicle binding, dose response, powder samples, mouse 2C CD8+ cells (AID 504565); assay type: functional
# [16] = target: Nonstructural protein 1 (Influenza A virus, UniProt Q194T2); assay type: functional, Influenza A virus (A/California/07/2009(H1N1))
# [17] = tested on: Streptococcus; test: Group A Streptococcus viability loss, dose response, counter-screen for streptokinase expression inhibitor project, luminescence, BacTiterGlo (AID 1915); assay type: functional, organism-based;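 also: potency for reduction of bacterial viability or growth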
# [18] = target: Type-1 angiotensin II receptor (Homo sapiens, UniProt P30556); test: AT1 receptor antagonists, dose response, selectivity assay for APJ receptor antagonist project, cell-based, uHTS hits (AID 463214); assay type: functional;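 also: antagonist potency against angiotensin II stimulated AT1 response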
# [19] = tested on: Streptococcus sp. 'group A'; test: growth inhibition of control SK(-) GAS strain, dose response, counter-screen for streptokinase expression inhibitor project, luminescence, kanamycin, BacTiterGlo, confirmation (AID 1900); assay type: functional, organism-based
# [20] = target: T6, Kappa-type opioid receptor (Homo sapiens, UniProt P41145); assay type: functional
# [21] = tested on: INS1; test: beta cell apoptosis inhibitors, cytokine rescue, dose response, luminescence, retest (AID 449756); assay type: functional, cell-based; conditions: Rattus norvegicus;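 also: cell death triggered by IL-1 beta plus TNF-alpha plus IFN-gamma mixture; protective hits raise ATP signal compared with cytokine alone wells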
# [22] = cells; assay type: functional, cell-based
# [23] = target: T7, Beta-galactosidase (Escherichia coli, UniProt Q8VNN2); test: PubChem AID 485352; assay type: functional
# [24] = inhibitors of SNCA 5'UTR-driven translation, confirmation, luminescence, H4 neuroglioblastoma cells, dose confirmation (AID 2454); assay type: functional, cell-based;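 also: H4 neuroglioblastoma cells carrying an alpha-synuclein 5'UTR luciferase reporter; potency for inhibition of the luciferase signal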
# [25] = HepG2 cell cytotoxicity, dose response, cytotoxicity control for non-replicating M. tuberculosis project (AID 489018); assay type: functional; conditions: Mycobacterium tuberculosis
# [26] = cells; assay type: functional
# [27] = target: T6, Kappa-type opioid receptor; assay type: functional; remark: listed apart in the source
# [28] = target: T7, Beta-galactosidase; test: Dose response counterscreen for EBI2 assay utilizing the enzyme, b-galactosidase.; assay type: functional
# [29] = target: T7, Beta-galactosidase; assay type: functional
# [30] = THP-1 cell cytotoxicity, dose response, cytotoxicity control for non-replicating M. tuberculosis project (AID 489025); assay type: functional
# [31] = inhibitors of SNCA 5'UTR-driven reporter translation, confirmation, H4 neuroglioma cells, luminescence (AID 1988); assay type: functional, cell-based
# [32] = Vero E6 cell cytotoxicity, dose response, cytotoxicity control for non-replicating M. tuberculosis project, secondary assay (AID 492998); assay type: functional, VeroE6; conditions: Vero C1008
# [33] = inhibitors of firefly luciferase expression or activity, dose response, H4 neuroglioma cells, luminescence (AID 1990); assay type: functional, cell-based
# [34] = tested on: Vero; test: cells; assay type: functional, cell-based; conditions: Chlorocebus sabaeus
# [35] = luciferase reporter signal reduction – luminescence, H4-C neuroglioblastoma cells, dose response (AID 2458); assay type: functional, cell-based;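 also: H4 neuroglioblastoma cells stably carrying a luciferase reporter gene fusion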
# T7 sequence (Q8VNN2 whole entry): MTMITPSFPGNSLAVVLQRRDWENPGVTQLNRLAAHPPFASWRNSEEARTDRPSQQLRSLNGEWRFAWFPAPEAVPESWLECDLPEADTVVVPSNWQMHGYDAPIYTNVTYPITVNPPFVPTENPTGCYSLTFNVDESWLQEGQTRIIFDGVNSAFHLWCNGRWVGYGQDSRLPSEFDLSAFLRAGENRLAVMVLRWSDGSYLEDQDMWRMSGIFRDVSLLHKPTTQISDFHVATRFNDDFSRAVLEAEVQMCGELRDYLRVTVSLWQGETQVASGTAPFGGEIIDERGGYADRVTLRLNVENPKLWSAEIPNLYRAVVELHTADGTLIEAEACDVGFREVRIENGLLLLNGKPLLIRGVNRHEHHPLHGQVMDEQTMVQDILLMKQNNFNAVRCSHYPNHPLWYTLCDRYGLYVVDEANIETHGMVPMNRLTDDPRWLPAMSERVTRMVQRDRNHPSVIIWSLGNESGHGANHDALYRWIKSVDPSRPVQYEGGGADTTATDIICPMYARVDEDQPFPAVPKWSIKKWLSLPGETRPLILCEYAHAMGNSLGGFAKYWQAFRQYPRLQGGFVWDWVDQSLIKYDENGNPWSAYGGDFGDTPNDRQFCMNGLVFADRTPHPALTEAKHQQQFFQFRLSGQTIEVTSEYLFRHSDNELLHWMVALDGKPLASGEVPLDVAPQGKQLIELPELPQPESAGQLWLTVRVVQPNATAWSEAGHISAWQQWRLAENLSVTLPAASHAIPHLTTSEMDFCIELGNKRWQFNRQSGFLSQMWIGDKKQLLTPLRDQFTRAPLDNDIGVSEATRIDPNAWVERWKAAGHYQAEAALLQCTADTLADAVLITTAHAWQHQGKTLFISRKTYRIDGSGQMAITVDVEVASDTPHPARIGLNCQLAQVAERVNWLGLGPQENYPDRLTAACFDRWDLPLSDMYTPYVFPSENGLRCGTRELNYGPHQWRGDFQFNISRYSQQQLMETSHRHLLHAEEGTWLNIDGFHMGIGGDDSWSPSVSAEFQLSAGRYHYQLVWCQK
# T6 sequence (P41145 whole entry): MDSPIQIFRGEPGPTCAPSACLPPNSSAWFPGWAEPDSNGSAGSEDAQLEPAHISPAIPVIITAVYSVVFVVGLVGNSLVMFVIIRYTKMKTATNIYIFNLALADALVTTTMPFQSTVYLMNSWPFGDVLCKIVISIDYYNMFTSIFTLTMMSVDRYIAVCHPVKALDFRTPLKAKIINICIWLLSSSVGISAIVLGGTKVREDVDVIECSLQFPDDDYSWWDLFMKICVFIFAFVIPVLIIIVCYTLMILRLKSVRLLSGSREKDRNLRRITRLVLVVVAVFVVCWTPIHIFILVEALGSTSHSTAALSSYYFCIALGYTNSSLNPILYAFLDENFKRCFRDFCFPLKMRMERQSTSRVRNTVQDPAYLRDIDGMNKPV
# Integrin alpha-L, sequence (P24063 whole entry): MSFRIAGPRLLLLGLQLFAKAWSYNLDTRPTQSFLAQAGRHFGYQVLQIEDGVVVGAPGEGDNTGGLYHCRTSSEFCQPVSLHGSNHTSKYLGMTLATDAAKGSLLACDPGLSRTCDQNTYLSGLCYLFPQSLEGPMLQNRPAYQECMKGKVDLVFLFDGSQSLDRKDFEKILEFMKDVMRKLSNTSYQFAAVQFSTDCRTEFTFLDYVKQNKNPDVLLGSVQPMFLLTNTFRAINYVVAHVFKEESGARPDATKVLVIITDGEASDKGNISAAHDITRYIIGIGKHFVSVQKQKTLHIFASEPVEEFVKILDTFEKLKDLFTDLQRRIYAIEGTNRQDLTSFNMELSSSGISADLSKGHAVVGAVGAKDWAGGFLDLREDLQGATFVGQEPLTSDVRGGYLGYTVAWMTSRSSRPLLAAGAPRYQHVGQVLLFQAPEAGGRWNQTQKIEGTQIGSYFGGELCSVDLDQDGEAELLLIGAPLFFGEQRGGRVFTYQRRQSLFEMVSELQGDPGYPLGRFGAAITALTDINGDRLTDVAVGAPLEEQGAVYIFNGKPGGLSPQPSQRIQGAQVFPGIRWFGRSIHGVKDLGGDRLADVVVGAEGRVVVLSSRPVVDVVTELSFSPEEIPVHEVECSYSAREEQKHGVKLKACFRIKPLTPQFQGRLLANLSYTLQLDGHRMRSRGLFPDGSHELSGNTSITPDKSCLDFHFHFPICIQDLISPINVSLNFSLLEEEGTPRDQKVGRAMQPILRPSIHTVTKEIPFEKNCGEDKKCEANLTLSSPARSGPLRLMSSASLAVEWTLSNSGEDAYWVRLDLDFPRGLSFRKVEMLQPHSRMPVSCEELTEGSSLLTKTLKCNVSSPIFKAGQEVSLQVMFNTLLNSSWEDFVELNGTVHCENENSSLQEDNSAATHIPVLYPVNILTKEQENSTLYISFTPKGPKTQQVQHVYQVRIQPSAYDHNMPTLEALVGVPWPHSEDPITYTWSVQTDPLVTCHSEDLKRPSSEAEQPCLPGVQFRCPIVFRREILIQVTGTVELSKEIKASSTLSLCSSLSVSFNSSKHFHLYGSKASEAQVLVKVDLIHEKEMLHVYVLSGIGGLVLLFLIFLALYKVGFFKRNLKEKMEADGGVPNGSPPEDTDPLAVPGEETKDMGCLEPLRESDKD
# Nonstructural protein 1, sequence (Q194T2 whole entry): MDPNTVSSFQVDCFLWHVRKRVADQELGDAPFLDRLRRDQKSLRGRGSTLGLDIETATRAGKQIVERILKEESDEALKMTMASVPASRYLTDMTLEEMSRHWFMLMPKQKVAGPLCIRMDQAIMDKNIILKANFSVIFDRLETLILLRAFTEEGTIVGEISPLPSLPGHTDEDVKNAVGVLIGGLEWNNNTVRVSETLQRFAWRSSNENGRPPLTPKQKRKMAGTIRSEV
# Type-1 angiotensin II receptor, sequence (P30556 whole entry): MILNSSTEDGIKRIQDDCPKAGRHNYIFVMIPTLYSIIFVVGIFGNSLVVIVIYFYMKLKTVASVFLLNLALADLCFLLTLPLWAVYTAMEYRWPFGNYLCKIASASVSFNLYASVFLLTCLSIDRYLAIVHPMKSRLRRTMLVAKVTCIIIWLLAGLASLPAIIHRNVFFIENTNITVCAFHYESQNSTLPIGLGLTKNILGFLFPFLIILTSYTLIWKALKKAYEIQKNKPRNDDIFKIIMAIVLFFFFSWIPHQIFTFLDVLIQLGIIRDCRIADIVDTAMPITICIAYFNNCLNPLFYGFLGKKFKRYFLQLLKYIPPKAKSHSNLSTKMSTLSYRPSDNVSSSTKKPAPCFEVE
# 1-acylglycerol-3-phosphate O-acyltransferase ABHD5/Perilipin-5, sequence (Q00G26 whole entry, the tested form may be a part): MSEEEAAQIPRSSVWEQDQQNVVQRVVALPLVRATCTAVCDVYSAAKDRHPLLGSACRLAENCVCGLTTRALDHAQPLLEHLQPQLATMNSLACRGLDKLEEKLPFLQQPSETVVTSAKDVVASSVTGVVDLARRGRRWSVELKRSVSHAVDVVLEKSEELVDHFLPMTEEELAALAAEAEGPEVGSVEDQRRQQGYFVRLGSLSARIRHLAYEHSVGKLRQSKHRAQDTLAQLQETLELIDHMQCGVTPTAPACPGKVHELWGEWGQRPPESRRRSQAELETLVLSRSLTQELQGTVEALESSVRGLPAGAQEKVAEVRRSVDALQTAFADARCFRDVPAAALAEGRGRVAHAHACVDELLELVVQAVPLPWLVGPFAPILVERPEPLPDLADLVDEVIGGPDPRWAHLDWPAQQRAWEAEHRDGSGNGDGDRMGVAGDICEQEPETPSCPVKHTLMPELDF
# 1-acylglycerol-3-phosphate O-acyltransferase ABHD5/Perilipin-5, sequence (Q8WTS1 whole entry, the tested form may be a part): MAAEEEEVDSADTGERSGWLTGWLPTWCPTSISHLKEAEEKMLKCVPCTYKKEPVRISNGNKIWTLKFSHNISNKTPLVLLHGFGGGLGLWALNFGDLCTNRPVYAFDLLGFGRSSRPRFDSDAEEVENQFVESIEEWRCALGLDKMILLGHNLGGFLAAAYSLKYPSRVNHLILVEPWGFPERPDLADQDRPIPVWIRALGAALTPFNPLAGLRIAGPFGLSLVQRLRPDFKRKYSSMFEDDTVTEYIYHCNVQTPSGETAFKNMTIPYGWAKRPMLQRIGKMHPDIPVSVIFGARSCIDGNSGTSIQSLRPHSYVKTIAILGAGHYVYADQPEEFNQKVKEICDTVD
# Potassium voltage-gated channel subfamily KQT member 2, sequence (O88943 whole entry): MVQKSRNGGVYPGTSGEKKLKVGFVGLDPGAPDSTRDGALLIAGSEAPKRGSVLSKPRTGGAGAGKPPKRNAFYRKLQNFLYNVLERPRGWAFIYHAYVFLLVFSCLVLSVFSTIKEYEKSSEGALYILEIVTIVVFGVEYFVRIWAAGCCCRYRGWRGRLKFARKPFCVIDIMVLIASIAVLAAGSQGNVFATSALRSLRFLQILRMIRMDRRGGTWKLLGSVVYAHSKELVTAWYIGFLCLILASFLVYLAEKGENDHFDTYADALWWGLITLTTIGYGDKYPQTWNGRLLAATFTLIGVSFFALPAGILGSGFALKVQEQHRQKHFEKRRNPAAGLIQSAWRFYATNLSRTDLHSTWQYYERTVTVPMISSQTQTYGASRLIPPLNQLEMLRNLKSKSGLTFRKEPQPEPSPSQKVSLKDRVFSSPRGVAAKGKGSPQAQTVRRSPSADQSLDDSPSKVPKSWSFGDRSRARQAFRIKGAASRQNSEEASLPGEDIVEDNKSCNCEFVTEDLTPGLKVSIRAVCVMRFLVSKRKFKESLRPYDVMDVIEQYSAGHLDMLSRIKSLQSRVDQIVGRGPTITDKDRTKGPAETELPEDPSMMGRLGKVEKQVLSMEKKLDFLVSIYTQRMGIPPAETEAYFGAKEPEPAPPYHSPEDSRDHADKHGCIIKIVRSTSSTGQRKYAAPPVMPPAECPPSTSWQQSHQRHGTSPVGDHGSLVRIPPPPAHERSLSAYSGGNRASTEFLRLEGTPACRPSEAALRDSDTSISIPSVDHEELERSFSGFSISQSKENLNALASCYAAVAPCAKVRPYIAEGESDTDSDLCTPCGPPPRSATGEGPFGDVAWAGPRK
# DNA dC->dU-editing enzyme APOBEC-3A, sequence (P31941 whole entry): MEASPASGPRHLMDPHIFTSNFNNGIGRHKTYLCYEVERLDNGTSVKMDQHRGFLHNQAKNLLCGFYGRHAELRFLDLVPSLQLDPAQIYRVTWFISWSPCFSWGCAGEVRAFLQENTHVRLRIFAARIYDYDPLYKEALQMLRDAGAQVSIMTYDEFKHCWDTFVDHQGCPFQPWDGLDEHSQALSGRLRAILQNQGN
structure (smiles),measurement,setting,value
CCCCc1ccc(NC(=O)Nc2cccnc2)cc1,EC50,[1],13.7 µM (active)
same,IC50,[2],5.08 µM (active)
same,IC50,[3],14.1 µM (active)
same,IC50,[4],22.7 µM (active)
same,IC50,[5],16.8 µM (active)
O=C(/C=C/Sc1ccccc1)c1ccccc1,EC50,[6],27.7 µM (active)
same,IC50,[7],3.91 µM (active)
same,CC50,[8],23.6 µM (active)
same,EC50,[9],28.4 µM (active)
same,IC50,[10],3.91 µM (active)
same,EC50,[11],5.83 µM (active)
CSc1ccc(/C=C(/Sc2nnc(-c3ccccc3)o2)C(=O)O)cc1,AC50,[12],116 µM (active)
CCc1c(C)nc(S)c(C#N)c1C,IC50,[13],> 100 µM (inactive)
same,IC50,[14],6 µM (active)
O=C(c1ccc(N2C(=O)C3CC=C(Cl)CC3C2=O)cc1)N1CCCCC1 (stereo unspecified),EC50,[15],9.02 µM (active)
C/C(=N\NC(=O)c1cccc(Br)c1)c1ccccn1,IC50,[16],1.67 µM (active)
same,EC50,[17],4.74 µM (active)
same,IC50,[18],3.51 µM (active)
same,EC50,[19],1.29 µM (active)
same,IC50,[20],1.82 µM (active)
same,AC50,[21],0.315 µM (active)
same,EC50,[22],0.966 µM (active)
same,EC50,[23],> 40 µM (inactive)
same,EC50,[24],0.895 µM (active)
same,CC50,[25],2.71 µM (active)
same,IC50,[26],0.57 µM (active)
same,IC50,[27],> 32 µM
same,IC50,[28],> 80 µM (inactive)
same,EC50,[29],> 31.5 µM (inactive)
same,CC50,[30],0.584 µM (active)
same,EC50,[31],< 0.1 µM (active)
same,CC50,[8],1.78 µM (active)
same,CC50,[32],1.03 µM (active)
same,EC50,[33],30 µM (active)
same,IC50,[34],> 25 µM (active)
same,EC50,[35],0.714 µM (active)
